# Data from patent publication US20070021329A1, “Treatment of hypersensitivity conditions” (THE University of QUEENSLAND, priority 2002, published 2007).
# Columns and labels:
# [1] = system: feline asthma; test: Treatment of asthma in a tiger cub; assay type: in vivo, Bengal Tiger; settings: for response of respiratory clinical signs to bronchodilators: terbutaline 0.3 mg/kg orally, Ventolin puffer 100 μg by inhalation
# Description: Respiratory problems were first noticed in Kaasha, a female Bengal Tiger cub at the Dreamworld park, Australia, at the age of 10 weeks and around 10 kg body weight.
# Approximately three weeks after initial clinical signs, the treatment included Clavulox (7 mg/kg administered subcutaneously), doxycycline (5 mg/kg administeredorally), and enrofloxacin (5 mg/kg administered subcutaneously) and terbutaline (0.3 mg/kg administered orally), nebulisation (saline) and percussion, use of Ventolin 100 μg by puffer inhalation and terbutaline (0.3 mg/kg administered orally) as necessary to control dyspnoea. Prednisolone was given as a single daily dose of 2 mg/kg, and Seretide (Salmeterol 50 μg plus fluticasone 250 μg) was given using a mask and spacer. […] This combination of treatment was maintained over the next month.
# Consequently an experimental technique involving direct injection of Prednisolone sodium succinate, 1200 mg in a total volume of 30 ml (40 mg/ml aqueous solution), was instilled into the trachea under general anaesthesia.
# Three weeks after the intra-airway steroid procedure, another experimental therapy was applied. […] (1) were administered at a dose rate of 0.3 mg/kg as single daily subcutaneous injections for six days, followed by twice-weekly injections for 8 weeks. At this time the dose of oral corticosteriod, Prednisolone approx 1 mg/kg reducing, had been reduced to 20 mg per day because of concern regarding side effects of prolonged high dose use.
# [2] = system: feline C5a receptor; test: Binding to feline C5a receptor; set-up: species or system cat
# [3] = system: equine receptor; test: Binding to equine C5a receptor; set-up: species or system horse
# [4] = dog, in vivo, sc
# Description: (§2) Blood samples were collected after 4 weeks of treatment. […] Biochemistry and haematology was repeated on the high-dose dog at this time.
# (§3) The second dog was bled for haematology and biochemistry after a total of seven weeks treatment.
# [5] = system: dermal Arthus reaction; test: Reverse passive dermal Arthus reaction in the rat: vascular leakage (Evans blue); assay type: in vivo; settings: intravenous, oral and topical pretreatment, FIG. 1
# Description: (1) by oral gavage (10 mg kg^−1 dissolved in 10% ethanol/90% saline solution to a final volume of 200 μl) or an appropriate oral vehicle control 30 min prior to deposition of antibody. Female Wistar rats (150-250 g) were anaesthetised with ketamine (80 mg kg^−1 i.p.) and xylazine (12 mg kg^−1 i.p.).
# (§1) The lateral surfaces of the rat were carefully shaved and 5 distinct sites on each lateral surface clearly delineated. A reverse passive Arthus reaction was induced in each dermal site by injecting Evans blue (15 mg kg^−1 i.v.), chicken ovalbumin (20 mg kg^−1 i.v.) into the femoral vein 10 min prior to the injection of antibody. Rabbit anti-chicken ovalbumin (saline only, 100, 200, 300 or 400 μg antibody in a final injection volume of 30 μL) was injected in duplicate at two separate dermal sites on each lateral surface of the rat, giving a total of 10 injection sites per rat. Rats were placed on a heating pad, and anaesthetic was maintained over a 4 h-treatment period with periodic collection of blood samples. […] Additionally, a second set of skin samples were placed in 1 mL of formamide overnight, and the absorbance of Evans blue extraction measured at 650 nm, as an indicator of serum leakage into the dermis. […] Data are shown as absorbance at 650nm as a percentage of the plasma absorbance, as mean values ±SEM (n=3-6). *indicates a P value ≦0.05 when compared to Arthus control values. […]
# [6] = Safety observations in dogs treated with PMX53 (haematology, biochemistry, autopsy, injection site); settings: both dogs; duration of the experiment
# Description: as §2, §3
# [7] = system: allergic dermatitis; test: Treatment of allergic/atopic dermatitis in dogs; assay type: in vivo, dog
# Excerpt: Because of the intermittent nature of the lameness the owner, a veterinarian, found it difficult to assess any improvement.
# A very old dog (estimated age 13-16 years) admitted to a pound was diagnosed as having severe atopic dermatitis affecting 100% of the skin and the inside of the ear pinnae (otitis external, and keratoconjunctivitis sicca (“dry eye”). The dog had broken skin over the dorsum of the tail, and both eyes were encrusted with yellow exudate.
# The sores on the tail resolved within 3 days.
# [8] = system: dermal Arthus reaction; test: Reverse passive dermal Arthus reaction in the rat: pathology assessment (PMN infiltration score); assay type: in vivo; settings: intravenous, oral and topical pretreatment, FIG. 3
# Description: as §1
# Rat skin samples were fixed in 10% buffered formalin for at least 10 days, and stained with haematoxylin and eosin using standard histological techniques. Dermal samples were analysed in a blind fashion for evidence of pathology, and the degree of rat PMN infiltration was scored on a scale of 0-4. […]
# [9] = system: circulating TNFα; test: Reverse passive dermal Arthus reaction in the rat: serum TNFα ELISA; assay type: in vivo; settings: intravenous, oral and topical pretreatment, FIG. 2
# Description: as §1, with “samples. Blood was allowed to spontaneously clot on ice, and serum samples were collected and stored at −20° C.” for “samples.”
# Serum TNFα concentrations were measured using an enzyme-linked immunosorbent assay (ELISA) kit (Strachan et al., 2000). […]
# [10] = system: demodectic dermatitis (Demodex canis infestation); test: Treatment of flea allergy dermatitis and demodectic dermatitis in dogs; assay type: in vivo, dog
# Excerpt: Demodex, also known as demodectic mange or red mange, is an infestation of the skin caused by the mite Demodex canis which causes dermatitis, skin thickening and hair loss, and is very common in dogs. This condition is thought to be due partially to impaired immune responses in the host. It is often associated with flea infestation, which itself can cause an allergic dermatitis. The skin irritation in infected animals is sometimes very extensive, and results in loss of hairs and severe skin rashes. […] (b) A mastiff pup (approximately 6 months old) was diagnosed as having demodex infestation (folliculitis) of the head, involving both eyelids. […] The eyes were red and discharging, and the dog squinted because of the ocular pain. […] This was applied to the eyelid lesion so that the lesion was wet, and was also instilled into the eyes. […] This was considered to be a very significant clinical response.
# [11] = old dog, topical 5 mg/ml once a day
# [12] = mastiff pup, topical 10 mg/ml daily, after 5 days
compound,measurement,setting,value
"CC(C)(C)NCC(O)c1ccc(O)c(CO)c1 (centres unmarked) [Ventolin, albuterol, reference compound]",response of respiratory clinical signs to bronchodilators,[1],responded rapidly
AcF-[OPdChaWR] [PMX53],binding to the feline C5a receptor,[2],bind well
same,binding to the equine receptor,[3],binds less effectively
same,irritation at the site of injection,[4],no evidence of irritation
same,discomfort on injection,[4]; 0.3 mg/kg,No discomfort was noted
same,haematology and biochemistry abnormalities,[4]; 0.3 mg/kg,No abnormalities were detected
same,breathing and recovery time after episodes of dyspnoea,[1]; 0.3 mg/kg single daily subcutaneous injections for six days,moderate to marked improvement
same,general breathing pattern and recovery time,[1]; 0.3 mg/kg subcutaneous twice-weekly injections,"not as good during twice weekly treatments as it had been following daily injections, although recovery time was comparable"
same,"playfulness, general activity level, appetite and general demeanour",[1]; together with reduction in oral cortisone dosage,marked improvement
same,vascular leakage associated with a dermal Arthus reaction,[5],inhibition of the vascular leakage
same,signs of drug toxicity,[6],no signs of drug toxicity
same,allergic dermatitis,"[7]; kelpie dog, 1 mg/kg/day PO","marked improvement in the dog's allergic dermatitis, which had apparently resolved completely"
same,time to resolution of sores on the tail,"[7]; old dog, severe atopic dermatitis, topical 5 mg/ml in 50% propylene glycol:50% water once a day",≤ 3 days
same,gait,"[7]; old dog, after treatment, initially very stilted gait",able to walk and trot freely
same,eyes (keratoconjunctivitis sicca),"[7]; old dog, eye-drop formulation 5 mg/ml in 30% polyethylene glycol:70% normal saline",improved to the point of being essentially normal in appearance
same,itching,[7]; [11],no signs of itching
same,thickening of the skin over the stifle and ischial tuberosity,[7]; [11],resolved noticeably
same,severe allergic dermatitis (presumed flea allergy),"[7]; second dog, 0.3 mg/kg s.c. once daily, FIG. 4",completely resolved
same,pathology index associated with a dermal Arthus reaction,[8],reduction of the pathology index
same,rise in circulating TNFα associated with a dermal Arthus reaction,[9],inhibition of the rise in circulating TNFα
same,eyelid inflammation / trichiasis,"[10]; mastiff pup, eye drops 10 mg/ml once daily, over 5 days",inflammation resolved to the point that the trichiasis was relieved
same,inflammation in the skin (head lesions),[10]; [12],inflammation in the skin was reduced
same,mites in scrapings taken from the lesion,[10]; [12],mites were still present
same,inflammatory response in the skin,"[10]; two dogs with demodectic dermatitis, 0.3 mg/kg s.c. for 13 days",significant reduction in the inflammatory response in the skin
"CC(C)(C)NCC(O)c1cc(O)cc(O)c1 (centres unmarked) [terbutaline, reference compound]",response of respiratory clinical signs to bronchodilators,[1],responded rapidly
Prednisolone sodium succinate [reference compound],respiratory effort,"[1]; 1200 mg in 30 ml instilled into the trachea, within 24 hours",rapid and marked improvement in respiratory effort
